{
  "source": "patent EP2388023A1",
  "about": "“Composites on a basis of bioceramics and biodegradable or non biodegradable polymers, containing antibiotics for tissue restitution and products therefrom” (Universidade Federal de Minas Gerais, priority 2006, dated 2007)",
  "system": "dentine-pulp complex of rats",
  "experimental": "The objective of this study was to check the inflammatory response of the pulp tissue and dentine tissue formation in rats after the use of composites made from hydroxiapatite as compared to the use of […] (CETEA 143/04). The composites were prepared and sterilized with ethylene oxide, following the procedures described previously. 36 six-week-old rats (Rattus norvergicus) of the Wistar lineage, weighing between 250 and 300g were used in this investigation.\nThe animals were placed in […] groups: (1) Calcium hydroxide; (2) Bioceramics HA and PLGA; (3) Negative control within four periods of time (1, 7. 15 and 30 days). The animals received an intraperitoneal anesthetic injection of 10 ml Ketamine 10% and 7.5 ml Xilazine 10% (body weight: 0.1ml/100g).\nA cavity in the first upper molar oclussal face of the animals was made using a spherical drill n. 1/4 (ISO Maillefer), in total isolation, with water refrigeration and low rotation, keeping the animal in adequate equipment. No additional retention was supplied for the preparation of the cavity. Cavities and exposures were carefully cleaned with cotton balls and distilled water during four minutes. After being sacrificed, the animals underwent the histological processing of their teeth performed with the use of hematoxilin-eosin followed by a qualitative and quantitative histological analysis. The data was subjected to a ANOVA Test statistical analysis. The dentine bridge was measured with a 60-micrometer reticle.",
  "note": "Where two headings read alike, the source gives them in different places.",
  "data": [
    {"smiles": "[Ca+2].[OH-].[OH-]", "note": "[group (1), Calcium hydroxide]", "values": [
      {"measurement": "inflammatory response of the pulp tissue", "setting": "after seven days", "result": "necrosed areas and a mild acute inflammatory process"},
      {"measurement": "inflammatory response of the pulp tissue", "setting": "from the fourteenth day on", "result": "mild chronic infiltrate"},
      {"measurement": "formation of hard tissue", "setting": "onset, periods 1, 7, 15 and 30 days", "result": "around the thirtieth day"}
    ]}
  ]
}
